The values below come from patent US20140023611A1 (priority 2010, published 2014).

This assay deals with T1, rat NaP2b (SLC34A2) (Rattus norvegicus, UniProt Q9JJ09).
T1 construct: host or cells: HEK293
T1 sequence (Q9JJ09 1-695): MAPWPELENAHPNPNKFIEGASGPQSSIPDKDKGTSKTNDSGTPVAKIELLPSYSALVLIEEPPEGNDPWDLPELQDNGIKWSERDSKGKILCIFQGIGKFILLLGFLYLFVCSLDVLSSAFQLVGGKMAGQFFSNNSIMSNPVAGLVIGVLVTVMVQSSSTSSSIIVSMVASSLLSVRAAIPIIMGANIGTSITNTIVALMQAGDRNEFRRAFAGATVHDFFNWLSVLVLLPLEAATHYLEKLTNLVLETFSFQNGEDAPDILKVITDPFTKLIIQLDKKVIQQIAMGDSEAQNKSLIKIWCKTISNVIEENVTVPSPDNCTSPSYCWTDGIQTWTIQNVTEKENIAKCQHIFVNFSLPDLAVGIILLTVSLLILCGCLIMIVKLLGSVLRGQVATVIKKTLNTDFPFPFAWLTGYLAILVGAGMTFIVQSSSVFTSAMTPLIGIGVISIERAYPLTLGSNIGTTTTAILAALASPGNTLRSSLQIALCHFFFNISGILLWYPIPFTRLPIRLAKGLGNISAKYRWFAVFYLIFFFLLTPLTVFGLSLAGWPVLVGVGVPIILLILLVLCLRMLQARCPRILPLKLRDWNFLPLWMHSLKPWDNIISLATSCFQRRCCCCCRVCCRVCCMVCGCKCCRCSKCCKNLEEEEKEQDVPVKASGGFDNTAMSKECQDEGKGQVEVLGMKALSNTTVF
Put plainly: Inhibition of NaP2b-mediated Pi (33P) uptake in transfected HEK293 cells, rat NaP2b. The note with it: 33P Pi uptake, 0.1 mM phosphate, value given as pIC50 range. Type of assay: cell-based. Put shortly: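 HEK293 cells were transiently transfected with NaP2b cDNA using Lipofectamine and grown near confluence. Compounds were tested at twelve concentrations from 0.1 nM to 30 uM in duplicate, and 33P-phosphate uptake was counted by scintillation after lysis. Results are expressed as pIC50.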

The term IC50 denotes the concentration that inhibits the measured activity by half. High values mean a need for much substance, low ones inhibition by little substance. `CN(CCN1CCC[C@H]1C(=O)N(C)CCOCCOCCOCCC(=O)OC(C)(C)C)C(=O)c1cccc(C(=O)Nc2ccc(N3CCCCC3)cc2-c2cc(C(=O)N[C@H]3CCCc4ccccc43)ccn2)c1` [Example 190, tert-Butyl 2-methyl-1-((S)-1-(2-(N-methyl-3-((4-(piperidin-1-yl)-2-(4-(((S)-1,2,3,4-tetrahydronaphthalen-1-yl)carbamoyl)pyridin-2-yl)phenyl)carbamoyl)benzamido)ethyl)pyrrolidin-2-yl)-1-oxo-5,8,11-trioxa-2-azatetradecan-14-oate]: the concentration for half-maximal inhibition (IC50) is 1 to 7.94 µM. Under `CCN(CC)c1ccc(NC(=O)c2cccc(C(=O)N(C)CCO)c2)c(-c2cc(C(=O)N[C@H]3CCCc4ccccc43)ccn2)c1` [Example 194, (S)—N^1-(4-(diethylamino)-2-(4-((1,2,3,4-tetrahydronaphthalen-1-yl)carbamoyl)pyridin-2-yl)phenyl)-N^3-(2-hydroxyethyl)-N^3-methylisophthalamide] stands less than 1 µM. Compound `CCN(CC)c1ccc(NC(=O)c2cccc(C(=O)N(C)CCN3CCCN(C(=O)CCOCCOCCOCCOCCOCCOCCOCCOC)CC3)c2)c(-c2cc(C(=O)N[C@H]3CCCc4ccccc43)ccn2)c1` [Example 197, (S)—N^1-(2-(4-(2,5,8,11,14,17,20,23-octaoxahexacosan-26-oyl)-1,4-diazepan-1-yl)ethyl)-N^3-(4-(diethylamino)-2-(4-((1,2,3,4-tetrahydronaphthalen-1-yl)carbamoyl)pyridin-2-yl)phenyl)-N^1-methylisophthalamide] showed a half-inhibitory concentration (IC50) of 1 to 7.94 µM. For `COCCOCCOCCOCCOCCOCCOCCN(C)C(=O)[C@@H]1CCCN1CCN(C)C(=O)c1cccc(C(=O)Nc2ccc(N3CCCCC3)cc2-c2cc(C(=O)N[C@H]3CCCc4ccccc43)ccn2)c1` [Example 198, N^1-(2-((S)-2-(2,5,8,11,14,17,20-heptaoxadocosan-22-yl(methyl)carbamoyl)pyrrolidin-1-yl)ethyl)-N^1-methyl-N^3-(4-(piperidin-1-yl)-2-(4-(((S)-1,2,3,4-tetrahydronaphthalen-1-yl)carbamoyl)pyridin-2-yl)phenyl)isophthalamide] the value was 10 to 31.6 µM; for `COCCNC(=O)N1CCN(CCN(C)C(=O)c2cccc(C(=O)Nc3ccc(N4CCCCC4)cc3-c3cc(C(=O)NCc4cccc(C(F)(F)F)c4)ccn3)c2)CC1` [Example 207, N1-(2-(4-((2-methoxyethyl)carbamoyl)piperazin-1-yl)ethyl)-N3-(2-(4-((3-(trifluoromethyl)benzyl)carbamoyl)pyridin-2-yl)-4-(piperidin-1-yl)phenyl)-N1-methylisophthalamide], 10 to 31.6 µM; for `COCCNC(=O)N1CCN(CCN(C)Cc2cccc(C(=O)Nc3ccc(N4CCCCC4)cc3-c3cc(C(=O)NCc4cccc(C(F)(F)F)c4)ccn3)c2)CC1` [Example 208, N-(2-methoxyethyl)-4-(2-(methyl(3-(4-(piperidin-1-yl)-2-(4-(3-(trifluoromethyl)benzylcarbamoyl)pyridin-2-yl)phenylcarbamoyl)benzyl)amino)ethyl)piperazine-1-carboxamide], 10 to 31.6 µM. As for `COCCN(CCOC)CCN(C)C(=O)c1cccc(C(=O)Nc2ccc(N3CCCCC3)cc2-c2cc(C(=O)N[C@H]3CCCc4ccccc43)ccn2)c1` [Example 217, (S)—N1-(2-(bis(2-methoxyethyl)amino)ethyl)-N1-methyl-N3-(4-(piperidin-1-yl)-2-(4-(1,2,3,4-tetrahydronaphthalen-1-ylcarbamoyl)pyridin-2-yl)phenyl)isophthalamide], the half-maximal inhibitory concentration (IC50) is less than 1 µM. For `COCCN(CCOCCOCCOCCC(=O)O)CCN(C)C(=O)c1cccc(C(=O)Nc2ccc(N3CCCCC3)cc2-c2cc(C(=O)N[C@H]3CCCc4ccccc43)ccn2)c1` [Example 221, 5-{2-[N-methyl-1-(3-{[4-(piperidin-1-yl)-2-(4-{[(1S)-1,2,3,4-tetrahydronaphthalen-1-yl]carbamoyl}pyridin-2-yl)phenyl]carbamoyl}phenyl)formamido]ethyl}-2,8,11,14-tetraoxa-5-azaheptadecan-17-oic acid] the value was 10 to 31.6 µM; for `CCN(CC)c1ccc(NC(=O)c2cccc(C(=O)N(C)CCN(C)CCOCCOCCOCCNC(N)=O)c2)c(-c2cc(C(=O)N[C@H]3CCCc4ccccc43)ccn2)c1` [Example 224, (S)—N1-(1-amino-14-methyl-1-oxo-5,8,11-trioxa-2,14-diazahexadecan-16-yl)-N3-(4-(diethylamino)-2-(4-(1,2,3,4-tetrahydronaphthalen-1-ylcarbamoyl)pyridin-2-yl)phenyl)-N1-methylisophthalamide], 1 to 7.94 µM.

In the case of `CCN(CC)c1ccc(NC(=O)c2cccc(C(=O)N(C)CCN(C)CCOCCOCCOCCNC(=O)N(CCO)CCO)c2)c(-c2cc(C(=O)N[C@H]3CCCc4ccccc43)ccn2)c1` [Example 225, (S)—N1-(4-(diethylamino)-2-(4-(1,2,3,4-tetrahydronaphthalen-1-ylcarbamoyl)pyridin-2-yl)phenyl)-N3-(1-hydroxy-3-(2-hydroxyethyl)-17-methyl-4-oxo-8,11,14-trioxa-3,5,17-triazanonadecan-19-yl)-N3-methylisophthalamide], the IC50 is 10 to 31.6 µM. Under `COCCOCCOCCOCCOCCOCCOCCOCC(=O)N1CCN(CCN(C)C(=O)c2cccc(C(=O)Nc3ccc(N4CCCCC4)cc3-c3cc(C(=O)N[C@H]4CCCc5ccccc54)ccn3)c2)CC1` [Example 228, (S)—N1-(2-(4-2,5,8,11,14,17,20,23-octaoxapentacosanepiperazin-1-yl)ethyl)-N1-methyl-N3-(4-(piperidin-1-yl)-2-(4-(1,2,3,4-tetrahydronaphthalen-1-ylcarbamoyl)pyridin-2-yl)phenyl)isophthalamide] stands 1 to 7.94 µM; under `CN(CCN1C[C@H](O)C[C@H]1C(=O)N(C)CCOCCOCCOCCC(=O)OC(C)(C)C)C(=O)c1cccc(C(=O)Nc2ccc(N3CCCCC3)cc2-c2cc(C(=O)N[C@H]3CCCc4ccccc43)ccn2)c1` [Example 241], 1 to 7.94 µM; under `CN(CCN1CCOCC1)C(=O)Nc1cccc(C(=O)Nc2ccc(N3CCCCC3)cc2-c2cc(C(=O)N[C@H]3CCCc4ccccc43)ccn2)c1` [Example 245, (S)-2-(2-(3-(3-methyl-3-(2-morpholinoethyl)ureido)benzamido)-5-(piperidin-1-yl)phenyl)-N-(1,2,3,4-tetrahydronaphthalen-1-yl)isonicotinamide], 10 to 31.6 µM. Turning to `CCN(CC)c1ccc(NC(=O)c2cccc(CCCOCCOCCOCCOCCC(=O)N3CCN(CCOCCOCCOCCOCCOCCOCCOC)C(=O)C3)c2)c(-c2cc(C(=O)NCc3cccc(C(F)(F)F)c3)ccn2)c1` [Example 258, 2-(2-(3-(16-(4-(2,5,8,11,14,17,20-heptaoxadocosan-22-yl)-3-oxopiperazin-1-yl)-16-oxo-4,7,10,13-tetraoxahexadecyl)benzamido)-5-(diethylamino)phenyl)-N-(3-(trifluoromethyl)benzyl)isonicotinamide], the half-inhibitory concentration (IC50) was 1 to 7.94 µM. Under `CCN(CC)c1ccc(NC(=O)c2cccc(CCCOCCOCCOCCOCCC(=O)N(C)CCOCCOCCOCCOCCOCCOCCOC)c2)c(-c2cc(C(=O)NCc3cccc(C(F)(F)F)c3)ccn2)c1` [Example 259, 2-(5-(diethylamino)-2-(3-(23-methyl-24-oxo-2,5,8,11,14,17,20,27,30,33,36-undecaoxa-23-azanonatriacontan-39-yl)benzamido)phenyl)-N-(3-(trifluoromethyl)benzyl)isonicotinamide] stands 1 to 7.94 µM. `CCN(CC)c1ccc(NC(=O)c2cccc(CCCOCCOCCOCCOCCC(=O)NCCOCCOCCOCCOCCOCCOCCOC)c2)c(-c2cc(C(=O)NCc3cccc(C(F)(F)F)c3)ccn2)c1` [Example 260, 2-(5-(diethylamino)-2-(3-(24-oxo-2,5,8,11,17,20,27,30,33,36-undecaoxa-23-azanonatriacontan-39-yl)benzamido)phenyl)-N-(3-(trifluoromethyl)benzyl)isonicotinamide] had an IC50 of 1 to 7.94 µM.

`CCN(CC)c1ccc(NC(=O)c2cccc(CCCOCCOCCOCCOCCN)c2)c(-c2cc(C(=O)NCc3cccc(C(F)(F)F)c3)ccn2)c1` [Example 270, 2-(2-(3-(1-amino-3,6,9,12-tetraoxapentadecan-15-yl)benzamido)-5-(diethylamino)phenyl)-N-(3-(trifluoromethyl)benzyl)isonicotinamide] gave a concentration for half-maximal inhibition (IC50) of 1 to 7.94 µM. `CCN(CC)c1ccc(NC(=O)c2cccc(CCCOCCOCCOCCOCCNS(=O)(=O)c3ccc(C(=O)N(C)CCOCCOCCOCCOCCOCCOCCOC)cc3)c2)c(-c2cc(C(=O)NCc3cccc(C(F)(F)F)c3)ccn2)c1` [Example 287, 2-(2-(3-(1-(4-(2,5,8,11,14,17,20-heptaoxadocosan-22-yl(methyl)carbamoyl)phenylsulfonamido)-3,6,9,12-tetraoxapentadecan-15-yl)benzamido)-5-(diethylamino)phenyl)-N-(3-(trifluoromethyl)benzyl)isonicotinamide] gave a half-maximal inhibitory concentration (IC50) of 1 to 7.94 µM.
